# “And” between values parts separate entries of the source, which are not always exact repeats. Identical values can stand only once.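 Tested at 5 concentrations; 48 h exposure; 96-well plates; endpoints linearly interpolated, else capped at highest concentration. The concentration for 50% growth inhibition is given as GI50. TGI is the concentration that stops growth completely.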
# Columns and labels:
# Test in all cases: NCI tumour cell line growth inhibition, 48 h
# CAKI-1 renal = test system: CAKI-1 renal
# COLO 205 colon = test system: COLO 205 colon
# MOLT-4 leukemia = test system: MOLT-4 leukemia
# RPMI-8226 leukemia = test system: RPMI-8226 leukemia
# SF-539 CNS = test system: SF-539 CNS
# SNB-19 CNS = test system: SNB-19 CNS
# TK-10 renal = test system: TK-10 renal
# UO-31 renal = test system: UO-31 renal
Compound,GI50 (CAKI-1 renal) [µM],GI50 (COLO 205 colon),TGI (COLO 205 colon),GI50 (MOLT-4 leukemia),TGI (MOLT-4 leukemia),GI50 (RPMI-8226 leukemia),TGI (RPMI-8226 leukemia) [µM],GI50 (SF-539 CNS),TGI (SF-539 CNS),GI50 (SNB-19 CNS),TGI (SNB-19 CNS),GI50 (TK-10 renal),GI50 (UO-31 renal),TGI (UO-31 renal),TGI (CAKI-1 renal),TGI (TK-10 renal)
CCc1c2c(nc3cc4c(cc13)OCO4)-c1cc3c(c(=O)n1C2)COC(=O)[C@]3(O)CC,< 0.001,1.17 µM,> 100 µM,< 0.001 µM,0.0106 µM and 0.0339 µM,0.00315 µM,0.391,< 0.001 µM,0.0505 µM,0.0164 µM,0.455 µM,0.294 µM and 1.91 µM,0.0103 µM,0.401 µM and 0.0689 µM,,
C=CC(=O)N[C@H]1C=C(C)c2c(-c3cnc4ccccc4c3)c3c(N)ncnc3n2C1,1.82,15.4 µM,43.8 µM,24.5 µM,> 100 µM,17.9 µM,60.6,13.3 µM,31.6 µM,32.4 µM,> 100 µM,0.0478 µM,0.61 µM,11.5 µM,17.6 µM,7.88 µM
CCCCCCCCCCCCCC(=S)NCCCC[C@H](NC(=O)OCc1ccccc1)C(=O)Nc1ccccc1,,3.87 µM,22.5 µM,3.91 µM,> 100 µM,3.5 µM,> 100,10.7 µM,> 100 µM,4.27 µM,> 100 µM,4.4 µM,2.39 µM,> 100 µM,,> 100 µM
O=C(NNc1nc2c(F)cccc2n2cccc12)c1cnccn1,0.628,0.426 µM,> 33.4 µM,0.302 µM,> 100 µM,0.418 µM,9.88,0.487 µM,14.5 µM,0.545 µM,> 100 µM,5.05 µM,0.216 µM,13.6 µM,16.4 µM,60.9 µM
Cc1nn(-c2ccc(S(=O)(=O)[O-])cc2)c([O-])c1N=[N+](C)c1ccc(-c2ccc(N=Nc3ccc4c(S(=O)(=O)[O-])cc(S(=O)(=O)[O-])c(N)c4c3[O-])c([O-])c2)cc1[O-].[Cu+2].[Cu+2].[Na+],> 100,> 100 µM,> 100 µM,> 100 µM,> 100 µM,> 100 µM,> 100,> 100 µM,> 100 µM,> 100 µM,> 100 µM,> 100 µM,3.19 µM,> 100 µM,> 100 µM,> 100 µM
Fc1cccc(COc2ccc(Nc3ncncc3C#Cc3ccccc3)cc2Cl)c1,12.5,> 25 µM,> 25 µM,> 25 µM,> 25 µM,> 25 µM,> 25,> 25 µM,> 25 µM,> 25 µM,> 25 µM,15 µM,21.6 µM,> 25 µM,> 25 µM,> 25 µM
COc1ccc(C(=S)N2CCN(c3cccc(Cl)c3)CC2)cc1,> 100,> 100 µM,> 100 µM,> 100 µM,> 100 µM,45.4 µM,> 100,> 100 µM,> 100 µM,> 100 µM,> 100 µM,> 100 µM,43.3 µM,> 100 µM,> 100 µM,> 100 µM
CCOc1ccc(S(=O)(=O)/N=C2\C=C(SCC(=O)O)C(=O)c3ccccc32)cc1,7.76,3.68 µM,14 µM,2.38 µM,6.06 µM,2.05 µM,13.2,2.49 µM,5.39 µM,3.42 µM,12.1 µM,26.5 µM,4.13 µM,15.8 µM,20.8 µM,56.9 µM
CC(C)(C)c1cc(O)c(O)c(C(C)(C)C)c1,2.79,3.61 µM,12.2 µM,3.03 µM,8.67 µM,3.17 µM,7.69,3.47 µM,11 µM,7.3 µM,20.3 µM,3.08 µM,2.15 µM,4.98 µM,8.63 µM,7.4 µM
COc1ccc(-c2nn(-c3cccc(Cl)c3)cc2C2CC(c3ccccc3)=NN2C(C)=O)cc1 (centres undefined),6.54,> 100 µM,> 100 µM,> 100 µM,> 100 µM,> 100 µM,> 100,5.4 µM,58.7 µM,17 µM,> 100 µM,5 µM,6.36 µM,> 100 µM,> 100 µM,21.6 µM
CSc1nc(SC)c2c(CN=[N+]=[N-])c(Br)n(Cc3ccccc3)c2n1,,,> 100 µM,,> 100 µM,,> 100,,> 100 µM,,> 100 µM,,,> 100 µM,> 100 µM,> 100 µM
C=C1C(O)C2CCC(C)(C)C(=O)C2=C(CC(C)C)C12CC2 (centres undefined),31.2,22.7 µM,53.6 µM,33.1 µM,> 100 µM,22.3 µM,56.8,70.7 µM,> 100 µM,59.5 µM,> 100 µM,67.9 µM,66.1 µM,> 100 µM,86.6 µM,> 100 µM
CC(=O)Nc1cccc(-n2c(=O)n(C3CC3)c(=O)c3c(Nc4ccc(I)cc4F)n(C)c(=O)c(C)c32)c1,0.203,< 0.01 µM and 0.00125 µM,,6.96 µM and > 9.64 µM,> 100 µM,5.35 µM and > 4.38 µM,> 100,1.15 µM and > 3.69 µM,22.1 µM and > 10 µM,5.11 µM and > 2.09 µM,> 100 µM,< 0.0144 µM and 0.00977 µM,0.141 µM and 0.0654 µM,10.1 µM and > 10 µM,> 46.5 µM,20.7 µM and > 10 µM
COc1cccc(/C=C/C(=O)c2cc3c(N)c(C(=O)Nc4ccccc4C)sc3nc2C)c1,1.66,2.02 µM,7.61 µM,1.49 µM,27.8 µM,1.09 µM,2.92,1.13 µM,2.91 µM,1.07 µM,2.68 µM,1.55 µM,0.863 µM,1.72 µM,5.75 µM,6.21 µM
COC(=O)C1OC(O[C@H]2CCC3(C)C(CCC4(C)C3CC=C3C5CC(C)(C)CCC5(C(=O)O)CC[C@]34C)C2(C)C)C(O)C(OC2OC(CO)C(O)C(O)C2O)C1O (some centres undefined),12.2,8.64 µM,25.3 µM,2.17 µM,13.4 µM,,,,,6.82 µM,15.5 µM,7.22 µM,> 33.3 µM,> 33.3 µM,> 33.3 µM,14.2 µM
COc1c(C2CC(=O)Nc3c2cnn3Cc2ccco2)cc2c(c1OC)OCO2 (centres undefined),0.517,0.332 µM,2.86 µM,0.615 µM,> 100 µM,0.396 µM,> 56.5,0.434 µM,4.36 µM,> 100 µM,> 100 µM,11.3 µM,2.65 µM,> 100 µM,> 100 µM,> 100 µM

Compound,GI50 (CAKI-1 renal) [µM],GI50 (COLO 205 colon),TGI (COLO 205 colon),GI50 (MOLT-4 leukemia),TGI (MOLT-4 leukemia),GI50 (RPMI-8226 leukemia),TGI (RPMI-8226 leukemia) [µM],GI50 (SF-539 CNS),TGI (SF-539 CNS),GI50 (SNB-19 CNS),TGI (SNB-19 CNS),GI50 (TK-10 renal),GI50 (UO-31 renal),TGI (UO-31 renal),TGI (CAKI-1 renal),TGI (TK-10 renal)
COc1cc2c3c(cccc3c1)C(=O)N(CCN1CCCC1)C2=O,2.56,1.48 µM,3.28 µM,3.09 µM,> 100 µM,,,1.98 µM,5.14 µM,2.83 µM,58.6 µM,24.8 µM,,,> 100 µM,> 100 µM
COc1cc2ncn(-c3cc(OCc4ccccc4Cl)c(C(N)=O)s3)c2cc1OC,3.02,0.111 µM,> 25 µM,0.118 µM,> 25 µM,0.341 µM,> 25,0.249 µM,4.31 µM,1 µM,> 25 µM,3.04 µM,1.14 µM,> 25 µM,> 25 µM,> 22 µM
CC(C)(C)OC(=O)NC(Cc1ccccc1)C(=O)OCN1C(=O)C2C3C=CC(C2C1=O)C1C2C(=O)N(COC(=O)C(Cc4ccccc4)NC(=O)OC(C)(C)C)C(=O)C2C31 (centres undefined),,,28.7 µM,,82.4 µM,,> 100,,> 100 µM,,> 82.7 µM,,,> 87.9 µM,> 100 µM,> 91.2 µM
COC1(C(=O)N2Cc3nc(Cl)nc(N[C@H](C)c4cc(N)cc(C(F)(F)F)c4)c3C2)CCOCC1,25.4,18 µM,33.8 µM,9.05 µM,50.5 µM,22.2 µM,> 83.2,15.2 µM,29.8 µM,14.5 µM,72 µM,1.23 µM,7.63 µM,43.3 µM,> 100 µM,45.8 µM
Cc1nn(-c2ccc(F)cc2)c2ncnc(Nc3ccc(NC(=O)Nc4ccc(Cl)c(C(F)(F)F)c4)cc3)c12,1.83,1.87 µM,3.95 µM,2.67 µM,22.2 µM,1.71 µM,9.54,1.46 µM,3.08 µM,2.93 µM,10.2 µM,2.85 µM,1.65 µM,4.17 µM,4.75 µM,10.4 µM
Cc1cc2nc3c4cc(Cl)ccc4n(CCN(C)C)c3nc2cc1C,1.06,1.28 µM,3.24 µM,0.586 µM,3.44 µM,1.55 µM,4.12,1.55 µM,2.94 µM,1.92 µM,6.83 µM,2.51 µM,0.389 µM,3.35 µM,2.8 µM,5.74 µM
CC(=O)c1ccc(Nc2cc(-c3ccccc3)nc3c(O)cccc23)cc1,41.3,32.1 µM,> 100 µM,,,8.8 µM,46.8,21.5 µM,68.4 µM,,,18.1 µM,14 µM,53.9 µM,> 100 µM,84.8 µM
O=C(Nc1nc2ccccc2s1)OCC(F)(F)F,> 100,> 100 µM,> 100 µM,> 100 µM,> 100 µM,> 100 µM,> 100,> 100 µM,> 100 µM,> 100 µM,> 100 µM,> 100 µM,45.6 µM,> 100 µM,> 100 µM,> 100 µM
Clc1ccccc1C(c1ccccc1)(c1ccccc1)n1ccnc1,2.34,1.76 µM,3.28 µM and 29 µM,1.96 µM,6.87 µM and 57.7 µM,,> 62.7,3.22 µM,11.1 µM,3.14 µM,17.7 µM and 32.3 µM,3.88 µM,1.45 µM,9 µM and 19.8 µM,15.3 µM and 50.5 µM,13.5 µM and 30.9 µM
O=C(Nc1cccc(-n2ccc3c(NC(=O)c4ccccc4)nccc32)c1)c1cccc(C(F)(F)F)c1,0.0556,,,0.168 µM,> 100 µM,0.0327 µM,1.17,0.0314 µM,2.14 µM,0.0453 µM,> 100 µM,0.103 µM,0.312 µM,16 µM,3.36 µM,19.4 µM
COc1ccc(/C=C/C=C(/C#N)C(N)=S)cc1,29.6,20.9 µM,50.7 µM,,,,,34.8 µM,> 100 µM,26.2 µM,> 100 µM,37.6 µM,21.6 µM,45.2 µM,> 100 µM,> 100 µM
C=C1C(=O)O[C@H]2[C@H]1CC/C(CNC(=O)c1c[nH]c3ccc(F)cc13)=C\CC[C@@]1(C)O[C@@H]21,,0.583 µM,2.14 µM,1.32 µM,4.53 µM,1.14 µM,3.72,1.37 µM,2.81 µM,11.9 µM,26.1 µM,,1.14 µM,2.48 µM,,
O=C(c1ccc2ccccc2c1)c1c(C(F)(F)F)n([O-])c2cc(Cl)c(Cl)cc2[n+]1=O,1.35,,,1.14 µM,2.84 µM,1.58 µM,3.85,1.59 µM,2.93 µM,,,1.77 µM,1.51 µM,2.83 µM,2.63 µM,3.15 µM
COc1ccc(-c2cc(-c3cc(Cl)ccc3Cl)nc3[nH]c(-c4cc(F)c(Cl)cc4Cl)cc(=O)c23)cc1,34.1,43.6 µM,> 100 µM,24.2 µM,68.6 µM,25 µM,69.1,18.9 µM,55 µM,64.1 µM,> 100 µM,,59.5 µM,> 100 µM,> 100 µM,
CCN1CCN(c2nc(NCCCNc3ccnc4cc(Cl)ccc34)c3ccccc3n2)CC1,,1.66 µM,3.46 µM,2.07 µM,9.04 µM,2.12 µM,6.04,1.71 µM,3.34 µM,2.96 µM,11.5 µM,2.17 µM,1.49 µM,2.97 µM,,4.79 µM

# Source: PubChem BioAssay (NCI)
